This passage reports AC50 results from patent publication US20230365592A1 (Agios Pharmaceuticals, Inc., priority 2022, published 2023).

Some results are limits rather than exact numbers.

The target of the test is T1, human PAH with the R408W mutation (Homo sapiens, UniProt P00439, R408W).
T1 construct: expressed in transfected cells
T1 sequence (P00439 1-452 R408W): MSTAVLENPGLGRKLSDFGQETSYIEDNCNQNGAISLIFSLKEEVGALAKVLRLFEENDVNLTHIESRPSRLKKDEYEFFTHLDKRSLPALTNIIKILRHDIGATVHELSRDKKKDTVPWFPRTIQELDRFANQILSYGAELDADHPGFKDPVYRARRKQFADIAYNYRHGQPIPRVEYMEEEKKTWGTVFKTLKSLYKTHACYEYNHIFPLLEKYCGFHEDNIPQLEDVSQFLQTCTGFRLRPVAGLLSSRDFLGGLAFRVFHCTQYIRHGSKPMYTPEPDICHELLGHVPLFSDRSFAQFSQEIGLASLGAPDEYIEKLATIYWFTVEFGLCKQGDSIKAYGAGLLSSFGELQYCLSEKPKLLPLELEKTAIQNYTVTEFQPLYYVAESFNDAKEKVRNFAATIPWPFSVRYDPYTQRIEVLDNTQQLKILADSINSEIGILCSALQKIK
Put plainly: Cell Based Phenylalanine Flux Assay.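 Also: after compound treatment, cells received sepiapterin plus isotope-labelled Phenylalanine for 4 hours, then labelled Tyrosine in the medium was quantified, 10-point 2-fold dilution series run in duplicate.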 The note with it: A375 cells expressing human R408W PAH; 24 hrs compound incubation; 13C-Tyrosine by LC-MS; average where tested multiple times; read-out: AC50.
`Cn1cc(-c2nnc(C(=O)N3CCc4[nH]cnc4[C@@H]3c3cc4ccccn4n3)o2)c(C(F)(F)F)n1` [Example 679, (R)-(5-(1-methyl-3-(trifluoromethyl)-1H-pyrazol-4-yl)-1,3,4-oxadiazol-2-yl)(4-(pyrazolo[1,5-a]pyridin-2-yl)-6,7-dihydro-1H-imidazo[4,5-c]pyridin-5(4H)-yl)methanone]: the AC50 is more than 5000 nM.

For `Cn1nc(Cl)cc1C(=O)N1CCc2[nH]cnc2[C@H]1c1cc2ccccn2n1` [Example 680, (S)-(3-chloro-1-methyl-1H-pyrazol-5-yl)(4-(pyrazolo[1,5-a]pyridin-2-yl)-6,7-dihydro-1H-imidazo[4,5-c]pyridin-5(4H)-yl)methanone], the half-maximal activity concentration (AC50) is less than 500 nM. Under `N#Cc1ncoc1C(=O)N1CCc2[nH]cnc2[C@H]1c1cc2ccc(Br)cn2n1` [Example 682, (S)-5-(4-(6-bromopyrazolo[1,5-a]pyridin-2-yl)-4,5,6,7-tetrahydro-1H-imidazo[4,5-c]pyridine-5-carbonyl)oxazole-4-carbonitrile] stands 500 to 1000 nM; under `N#Cc1ncoc1C(=O)N1CCc2[nH]cnc2[C@@H]1c1cc2ccc(Br)cn2n1` [Example 683, (R)-5-(4-(6-bromopyrazolo[1,5-a]pyridin-2-yl)-4,5,6,7-tetrahydro-1H-imidazo[4,5-c]pyridine-5-carbonyl)oxazole-4-carbonitrile], more than 5000 nM.

Consider `N#Cc1ncoc1C(=O)N1CCc2[nH]cnc2[C@H]1c1cc2ccc(Cl)cn2n1` [Example 684, (S)-5-(4-(6-chloropyrazolo[1,5-a]pyridin-2-yl)-4,5,6,7-tetrahydro-1H-imidazo[4,5-c]pyridine-5-carbonyl)oxazole-4-carbonitrile], for which the AC50 lay in the range of 500 to 1000 nM. Under `N#Cc1ncoc1C(=O)N1CCc2[nH]cnc2[C@H]1c1cc2c(Cl)cccn2n1` [Example 686, (S)-5-(4-(4-chloropyrazolo[1,5-a]pyridin-2-yl)-4,5,6,7-tetrahydro-1H-imidazo[4,5-c]pyridine-5-carbonyl)oxazole-4-carbonitrile] stands less than 500 nM. Then `N#Cc1ncoc1C(=O)N1CCc2[nH]cnc2[C@@H]1c1cc2c(Cl)cccn2n1` [Example 687, (R)-5-(4-(4-chloropyrazolo[1,5-a]pyridin-2-yl)-4,5,6,7-tetrahydro-1H-imidazo[4,5-c]pyridine-5-carbonyl)oxazole-4-carbonitrile], with 1000 to 5000 nM; and `Cn1cc(-c2nnc(C(=O)N3CCc4[nH]cnc4[C@H]3c3cc4c(Cl)cccn4n3)o2)cn1` [Example 688, (S)-(4-(4-chloropyrazolo[1,5-a]pyridin-2-yl)-6,7-dihydro-1H-imidazo[4,5-c]pyridin-5(4H)-yl)(5-(1-methyl-1H-pyrazol-4-yl)-1,3,4-oxadiazol-2-yl)methanone], with less than 500 nM. For the compound `Cn1cc(-c2nnc(C(=O)N3CCc4[nH]cnc4[C@@H]3c3cc4c(Cl)cccn4n3)o2)cn1` [Example 689, (R)-(4-(4-chloropyrazolo[1,5-a]pyridin-2-yl)-6,7-dihydro-1H-imidazo[4,5-c]pyridin-5(4H)-yl)(5-(1-methyl-1H-pyrazol-4-yl)-1,3,4-oxadiazol-2-yl)methanone], the AC50 is more than 5000 nM. Then `C[C@@H](O)c1nc(C(F)F)c(C(=O)N2CCc3[nH]cnc3[C@H]2c2cc3ccccn3n2)o1` [Example 690, (4-(difluoromethyl)-2-((R)-1-hydroxyethyl)oxazol-5-yl)((S)-4-(pyrazolo[1,5-a]pyridin-2-yl)-6,7-dihydro-1H-imidazo[4,5-c]pyridin-5(4H)-yl)methanone], with less than 500 nM; and `C[C@H](O)c1nc(C(F)F)c(C(=O)N2CCc3[nH]cnc3[C@H]2c2cc3ccccn3n2)o1` [Example 692, (4-(difluoromethyl)-2-((S)-1-hydroxyethyl)oxazol-5-yl)((S)-4-(pyrazolo[1,5-a]pyridin-2-yl)-6,7-dihydro-1H-imidazo[4,5-c]pyridin-5(4H)-yl)methanone], with less than 500 nM.

For `C[C@H](O)c1nc(C(F)F)c(C(=O)N2CCc3[nH]cnc3[C@@H]2c2cc3ccccn3n2)o1` [Example 693, (4-(difluoromethyl)-2-((S)-1-hydroxyethyl)oxazol-5-yl)((R)-4-(pyrazolo[1,5-a]pyridin-2-yl)-6,7-dihydro-1H-imidazo[4,5-c]pyridin-5(4H)-yl)methanone], the AC50 was more than 5000 nM. As to `Cn1nc(Cl)nc1C(=O)N1CCc2[nH]cnc2[C@H]1c1cc2ccccn2n1` [Example 694, (S)-(3-chloro-1-methyl-1H-1,2,4-triazol-5-yl)(4-(pyrazolo[1,5-a]pyridin-2-yl)-6,7-dihydro-1H-imidazo[4,5-c]pyridin-5(4H)-yl)methanone], the AC50 is less than 500 nM. On to `Cn1nc(Cl)nc1C(=O)N1CCc2[nH]cnc2[C@@H]1c1cc2ccccn2n1` [Example 695, (R)-(3-chloro-1-methyl-1H-1,2,4-triazol-5-yl)(4-(pyrazolo[1,5-a]pyridin-2-yl)-6,7-dihydro-1H-imidazo[4,5-c]pyridin-5(4H)-yl)methanone], for which the AC50 is more than 5000 nM. Under `Cn1cc(-c2nnc(C(=O)N3CCc4[nH]cnc4[C@H]3c3cc4ccc(Cl)cn4n3)o2)cn1` [Example 696, (S)-(4-(6-chloropyrazolo[1,5-a]pyridin-2-yl)-6,7-dihydro-1H-imidazo[4,5-c]pyridin-5(4H)-yl)(5-(1-methyl-1H-pyrazol-4-yl)-1,3,4-oxadiazol-2-yl)methanone] stands less than 500 nM. Then `Cn1cc(-c2nnc(C(=O)N3CCc4[nH]cnc4[C@@H]3c3cc4ccc(Cl)cn4n3)o2)cn1` [Example 697, (R)-(4-(6-chloropyrazolo[1,5-a]pyridin-2-yl)-6,7-dihydro-1H-imidazo[4,5-c]pyridin-5(4H)-yl)(5-(1-methyl-1H-pyrazol-4-yl)-1,3,4-oxadiazol-2-yl)methanone], with more than 5000 nM.

Regarding `CC(C)(C#N)c1nc(C(F)F)c(C(=O)N2CCc3[nH]cnc3[C@H]2c2cc3ccccn3n2)o1` [Example 699, (S)-2-(4-(difluoromethyl)-5-(4-(pyrazolo[1,5-a]pyridin-2-yl)-4,5,6,7-tetrahydro-1H-imidazo[4,5-c]pyridine-5-carbonyl)oxazol-2-yl)-2-methylpropanenitrile], the AC50 is less than 500 nM. Turning to `CC(C)(O)c1nc(C(F)F)c(C(=O)N2CCc3[nH]cnc3[C@H]2c2cc3c(Cl)cccn3n2)o1` [Example 700, (S)-(4-(4-chloropyrazolo[1,5-a]pyridin-2-yl)-6,7-dihydro-1H-imidazo[4,5-c]pyridin-5(4H)-yl)(4-(difluoromethyl)-2-(2-hydroxypropan-2-yl)oxazol-5-yl)methanone], the AC50 is less than 500 nM. Under `CC(C)(O)c1nc(C(F)F)c(C(=O)N2CCc3[nH]cnc3[C@@H]2c2cc3c(Cl)cccn3n2)o1` [Example 701, (R)-(4-(4-chloropyrazolo[1,5-a]pyridin-2-yl)-6,7-dihydro-1H-imidazo[4,5-c]pyridin-5(4H)-yl)(4-(difluoromethyl)-2-(2-hydroxypropan-2-yl)oxazol-5-yl)methanone] stands 1000 to 5000 nM; under `C[C@@H](O)c1nc(C(F)F)c(C(=O)N2CCc3[nH]cnc3[C@H]2c2cc3c(Cl)cccn3n2)o1` [Example 702, ((S)-4-(4-chloropyrazolo[1,5-a]pyridin-2-yl)-6,7-dihydro-1H-imidazo[4,5-c]pyridin-5(4H)-yl)(4-(difluoromethyl)-2-((R)-1-hydroxyethyl)oxazol-5-yl)methanone], less than 500 nM; under `C[C@@H](O)c1nc(C(F)F)c(C(=O)N2CCc3[nH]cnc3[C@@H]2c2cc3c(Cl)cccn3n2)o1` [Example 703, ((R)-4-(4-chloropyrazolo[1,5-a]pyridin-2-yl)-6,7-dihydro-1H-imidazo[4.5-c]pyridin-5(4H)-yl)(4-(difluoromethyl)-2-((R)-1-hydroxyethyl)oxazol-5-yl)methanone], 1000 to 5000 nM.

As for `O=C(c1oc(C2(O)CC2)nc1C(F)F)N1CCc2[nH]cnc2[C@H]1c1cc2c(Cl)cccn2n1` [Example 704, (S)-(4-(4-chloropyrazolo[1,5-a]pyridin-2-yl)-6,7-dihydro-1H-imidazo[4,5-c]pyridin-5(4H)-yl)(4-(difluoromethyl)-2-(1-hydroxycyclopropyl)oxazol-5-yl)methanone], the AC50 was less than 500 nM. For the compound `Cc1nc([C@@H](C)O)oc1C(=O)N1CCc2[nH]cnc2[C@H]1c1cc2c(Cl)cccn2n1` [Example 706, ((S)-4-(4-chloropyrazolo[1,5-a]pyridin-2-yl)-6,7-dihydro-1H-imidazo[4,5-c]pyridin-5(4H)-yl)(2-((R)-1-hydroxyethyl)-4-methyloxazol-5-yl)methanone], the half-maximal activity concentration (AC50) is less than 500 nM. Under `Cc1nc([C@H](C)O)oc1C(=O)N1CCc2[nH]cnc2[C@H]1c1cc2c(Cl)cccn2n1` [Example 708, ((S)-4-(4-chloropyrazolo[1,5-a]pyridin-2-yl)-6,7-dihydro-1H-imidazo[4,5-c]pyridin-5(4H)-yl)(2((S)-1-hydroxyethyl)-4-methyloxazol-5-yl)methanone] stands less than 500 nM; under `C[C@@H](O)c1nc(C(F)F)c(C(=O)N2CCc3[nH]cnc3[C@H]2c2cc3c(F)cccn3n2)o1` [Example 710, (4-(difluoromethyl)-2-((R)-1-hydroxyethyl)oxazol-5-yl)((s)-4-(4-fluoropyrazolo[1,5-a]pyridin-2-yl)-6,7-dihydro-1H-imidazo[4,5-c]pyridin-5(4H)-yl)methanone], less than 500 nM.

Broadly, the AC50 is the concentration at which the activity in the assay is half-maximal.
